# Experimental data published in patent US7767240B2, “Microbiological control in poultry processing” (priority 2001, dated 2010).
# Key:
# Type in all cases: cell-based
# [1] = tested on: Escherichia coli ATCC 11229; assay: Individual bacteria count per bird at pH 8 (Example 3); conditions: 25 birds per treatment, control 3055
# Protocol: (§1) This group of tests was conducted to determine the effect of Clorox® bleach, Aquatize® biocide, and 1,3-dibromo-5,5-dimethylhydantoin (DBDMH) on carcass bacteria (Escherichia coli field strain) residual after 1,5-hour in a chill tank “soup”. Tests were conducted with soups at pH 7, pH 8 and pH 9 (adjusted by trisodium phosphate) for whole bird bacteria counts. Tests at pH 8 were conducted for individual bacteria counts.
# (§2) In general the tests involved normal processing of 56-day-old birds and immersing the carcasses first in a warm bath containing 10^4 per mL Escherichia coli, 10^4 per mL Salmonella enteritidis, 10^4 per mL Pseudomonas aeruginosa, 10^4 per mL Campylobacter jejuni, and 10^4 per mL spoilage bacteria each from […] strains (Listeria monocytogenes and Shigella sonnei). The carcasses were then immersed in a chill tank “soup”, containing normal organic fluids (blood, fat, skin, and meat particles) and containing the microbiocides on the test.
# (§3) The bacteria stock solution used for this group of tests was prepared by growing each bacteria sample in the appropriate broth shown in Table 12. […] The containers were observed and not allowed to develop a heavy, cloudy visual appearance which would indicate that the growth had developed for too long a period. Thus the solutions had the appearance of only being foggy or somewhat unclear.
# (§4) The procedure used for whole bird wash sampling was as follows: • 1. All samples were kept at ≦50 degrees Fahrenheit following collection. • 2. Microbiological analyses of samples began within 24 hours of sample collection. • 3. Information on the individual sample identification, date of collection, time of collection (phase during shift), treatment group and location of sample point were recorded on each sample bottle. • 4. At each defined sample time, carcasses were taken individually from the processing line wearing latex or rubber gloves. The gloves were rinsed with alcohol between each collection. • 5. Any excess fluid was drained off from the carcass. Each individual carcass was transferred to a sterile stomacher bag. • 6. To each carcass contained in the sterile stomacher bag, 400 mL of Butterfield's Phosphate Diluent (BPD) was added while making sure to pour the BPD into the inside of the carcass cavity. The carcass was rinsed inside and out with a rocking motion for one minute (ca. 35 RPM). This was best done by grasping the broiler carcass with one hand and the closed top of the bag with the other then rocking with a reciprocal motion in a 18-24 inch arc, assuring that all surfaces (interior and exterior of the carcass) were rinsed. • 7. The rinse solutions from each stomacher bag was transferred into the sample bottles, taking care to ensure that the information on the date of collection, time of collection (phase during shift), treatment group and location of sampler point matched that of the sample. • 8. Each bottle was sealed with parafilm and placed into a styrene container with crushed or dry ice or frozen freezer packs for overnight delivery to a testing laboratory. • 9. All filled styrene containers were held in a chilled (not below freezing) area until within 1 to 2 hours of courier collection for shipment.
# (§5) In greater detail the trial events and experimental design used in this group of tests were as follows: • a) Test microorganisms used were: • Escherichia coli ATCC 11229 • Pseudomonas aeruginosa ATCC 15442 • Salmonella enteritidis ATCC 13076 • Shigella sonnei ATCC 9290 • Listeria monocytogenes ATCC 7644 • Campylobacter jejuni ATCC 29428 • b) Test Procedure: All test strains were grown individually at 35° C. for 24 hours in the media specified in Table 12. Cells were harvested by centrifugation at 10,000×g for 10 minutes and washed twice with Butterfield's Phosphate Buffer (BPB of pH 7.2). Cells were resuspended in BPB to obtain a cell suspension of approximately 1.0×10^8 CFU/mL for each microorganism. […]
# [2] = tested on: Shigella sonnei ATCC 9290; assay: as above; conditions: 25 birds per treatment, control 4551
# Protocol: as §1, §2, §3, §4, §5
# [3] = tested on: Shigella sonnei ATCC 9290; assay: Bacteria count per bird over 20-day storage (Example 4); conditions: pH 8
# Protocol: A study was conducted to determine the effect of Clorox® bleach, and 1,3-dibromo-5,5-dimethylhydantoin (DBDMH) on carcass bacteria residual after 1.5 hour in a chill tank solution and spoilage 20-day shelf life longevity (caused by bacteria contamination). Tests were conducted at pH 8 (adjusted by trisodium phosphate). Skin pigmentation (Minolta Color Meter L value or Lightness, a value or redness and b value or yellowness) were determined before and post-processing.
# In general the study involved normal processing of 56-day-old birds, immersing carcasses first in a warm bath containing 10^4 per mL Escherichia coli, 10^4 per mL Salmonella enteritidis, 10^4 per mL Pseudomonas aeruginosa, 10^4 per mL Campylobacter jejuni, and 10^4 per mL spoilage bacteria each from […] strains (Listeria monocytogenes and Shigella sonnei). Carcass were then immersed in a chill tank “soup”, containing normal organic fluids (blood, fat, skin, and meat particles) and containing various disinfectants (termed test materials).
# A DBDMH stock solution and test solutions, a bacteria stock solution, and a “chicken soup” were prepared as in Example 3. In addition, the bacterial broth treatments, the whole bird wash sampling procedure, and the methodologies used for quantitative or qualitative determinations for bacterial organisms were conducted as in Example 3.
# In greater detail the trial events and experimental design used in this group of tests were as follows: • a) Test microorganisms used were: • Escherichia coli ATCC 11229 • Pseudomonas aeruginosa ATCC 15442 • Salmonella enteritidis ATCC 13076 • Shigella sonnei ATCC 9290 • Listeria monocytogenes ATCC 7644 • Campylobacter jejuni ATCC 29428 • b) Test Procedure: All test strains were grown individually at 35° C. for 24 hours in the media specified in Table 12. Cells were harvested by centrifugation at 10,000×g for 10 minutes and washed twice with Butterfield's Phosphate Buffer (BPB of pH 7.2). Cells were resuspended in BPB to obtain a cell suspension of approximately 1.0×10^8 CFU/mL for each microorganism. The target inoculum levels were approximately 10^6 CFU/mL in the final test solutions. In the cases of S. enteritidis and P. aeruginosa the species were washed by pouring into prepared sterile centrifuge tubes with cheesecloth filters. The culture was then pelleted and washed using above techniques and repeated 3 times. • c) The birds (56 days old) were processed under normal commercial conditions. • d) The bacteria were added to a large batch of the “chicken soup”, and then aliquots of the resultant mixture were distributed equally among the chill waters used for each test. Then the particular disinfectant composition under test was added to one of the chill waters. […]
structure (smiles),measurement,setting,value
"CC1(C)C(=O)N(Br)C(=O)N1Br [DBDMH, 1,3-dibromo-5,5-dimethylhydantoin]","average bacteria count per bird, E. coli",[1]; 10 ppm,357 per bird
same,"average bacteria count per bird, E. coli",[1]; 20 ppm,4 per bird
same,"average bacteria count per bird, S. sonnei",[2]; 10 ppm,456 per bird
same,"average bacteria count per bird, S. sonnei",[2]; 20 ppm,12 per bird
same,"average bacteria count per bird, S. sonnei","[3]; Day 0, 10 ppm",845 per bird
same,"average bacteria count per bird, S. sonnei","[3]; Day 0, 20 ppm",8 per bird
same,"average bacteria count per bird, S. sonnei","[3]; Day 2, 10 ppm",962 per bird
same,"average bacteria count per bird, S. sonnei","[3]; Day 2, 20 ppm",12 per bird
same,"average bacteria count per bird, S. sonnei","[3]; Day 4, 10 ppm",1101 per bird
same,"average bacteria count per bird, S. sonnei","[3]; Day 4, 20 ppm",19 per bird
same,"average bacteria count per bird, S. sonnei","[3]; Day 6, 10 ppm",1288 per bird
same,"average bacteria count per bird, S. sonnei","[3]; Day 6, 20 ppm",37 per bird
same,"average bacteria count per bird, S. sonnei","[3]; Day 8, 10 ppm",1604 per bird
same,"average bacteria count per bird, S. sonnei","[3]; Day 8, 20 ppm",76 per bird
same,"average bacteria count per bird, S. sonnei","[3]; Day 10, 10 ppm",1954 per bird
same,"average bacteria count per bird, S. sonnei","[3]; Day 10, 20 ppm",156 per bird
same,"average bacteria count per bird, S. sonnei","[3]; Day 12, 10 ppm",2347 per bird
same,"average bacteria count per bird, S. sonnei","[3]; Day 12, 20 ppm",323 per bird
same,"average bacteria count per bird, S. sonnei","[3]; Day 14, 10 ppm",2848 per bird
same,"average bacteria count per bird, S. sonnei","[3]; Day 14, 20 ppm",657 per bird
same,"average bacteria count per bird, S. sonnei","[3]; Day 16, 10 ppm",3513 per bird
same,"average bacteria count per bird, S. sonnei","[3]; Day 16, 20 ppm",1286 per bird
same,"average bacteria count per bird, S. sonnei","[3]; Day 18, 10 ppm",4242 per bird
same,"average bacteria count per bird, S. sonnei","[3]; Day 18, 20 ppm",1604 per bird
same,"average bacteria count per bird, S. sonnei","[3]; Day 20, 10 ppm",4941 per bird
same,"average bacteria count per bird, S. sonnei","[3]; Day 20, 20 ppm",1834 per bird
